Assay results reported in PMC8963254, “Effects of Lysine N-ζ-Methylation in Ultrashort Tetrabasic Lipopeptides (UTBLPs) on the Potentiation of Rifampicin, Novobiocin, and Niclosamide in Gram-Negative Bacteria” (Antibiotics, 2022).
Values after ≈ are worked out from the molar mass of the structure shown. Read-outs that look alike come from different tables or passages of the source.

Assays:
E. coli 94474 [1] = format: cell-based, Escherichia coli; conditions: for MICUTBLP: UTBLP alone
Outline: (§1)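 Values derive from a two-agent checkerboard with an 18 h, 37 °C incubation. FICI cut-offs: ≤0.5 synergy, 0.5–4 additive, >4 antagonism.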

E. coli 94393 [2] = format: cell-based, Escherichia coli; conditions: for MICUTBLP: UTBLP alone
Outline: as §1

E. coli ATCC 25922 = format: cell-based, Escherichia coli; conditions: for MICUTBLP: UTBLP alone
Outline: as §1

MRSA ATCC 33592 = format: cell-based, Staphylococcus aureus; conditions: ATCC 33592, 18 h
Outline: (§2)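 Turbidity at 590 nm defined growth, from which the MIC was taken. Cultures at a final density of 5 × 10^5 CFU/mL were exposed to a range of compound levels at 37 °C for 18 h in a CLSI-based microdilution format.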

S. aureus ATCC 29213 = format: cell-based, Staphylococcus aureus; conditions: ATCC 29213, 18 h
Outline: as §2

E. faecalis ATCC 29212 = format: cell-based, Enterococcus faecalis; conditions: ATCC 29212, 18 h
Outline: as §2

P. aeruginosa PAO1 = format: cell-based, Pseudomonas aeruginosa; conditions: for MICUTBLP: UTBLP alone
Outline: as §1

[3] = tested on: P. aeruginosa PA259-96196; format: cell-based, Pseudomonas aeruginosa; conditions: for MICUTBLP: UTBLP alone
Outline: as §1

[4] = tested on: P. aeruginosa PA262-101856; format: cell-based, Pseudomonas aeruginosa; conditions: for MICUTBLP: UTBLP alone
Outline: as §1

E. faecium ATCC 27270 = format: cell-based, Enterococcus faecium
Outline: as §1

[5] = tested on: P. aeruginosa PA259-96196; assay: microbe, parasite or virus in culture; format: cell-based, Pseudomonas aeruginosa; conditions: PA259-96196, 18 h
Outline: as §2

[6] = tested on: P. aeruginosa PA262-101856; assay: microbe, parasite or virus in culture; format: cell-based, Pseudomonas aeruginosa; conditions: PA262-101856, 18 h
Outline: as §2

E. coli 94474 [7] = assay: microbe, parasite or virus in culture; format: cell-based, Escherichia coli; conditions: 94474, 18 h
Outline: as §2

E. coli 94393 [8] = assay: microbe, parasite or virus in culture; format: cell-based, Escherichia coli; conditions: 94393, 18 h
Outline: as §2

[9] = UTBLP in combination with novobiocin
[10] = UTBLP in combination with rifampicin
[11] = novobiocin in combination with the UTBLP
[12] = rifampicin in combination with the UTBLP
[13] = UTBLP in combination with chloramphenicol
[14] = UTBLP in combination with niclosamide
[15] = chloramphenicol in combination with the UTBLP
[16] = niclosamide in combination with the UTBLP

- MICUTBLP (E. coli 94474 [1]; plate with novobiocin): > 128 µg/mL
- MICUTBLP (E. coli 94474 [1]; plate with rifampicin): > 128 µg/mL
- MICUTBLP [MICcombo] (E. coli 94474 [1]; [9]): 16 µg/mL
- MICUTBLP [MICcombo] (E. coli 94474 [1]; [10]): 16 µg/mL
- MICantibiotic [MICcombo] (E. coli 94474 [1]; [11]): 4 µg/mL
- MICantibiotic [MICcombo] (E. coli 94474 [1]; [12]): 0.5 µg/mL
- MICUTBLP (E. coli 94393 [2]; plate with novobiocin): > 128 µg/mL
- MICUTBLP (E. coli 94393 [2]; plate with rifampicin): > 128 µg/mL
- MICUTBLP [MICcombo] (E. coli 94393 [2]; [9]): 16 µg/mL
- MICUTBLP [MICcombo] (E. coli 94393 [2]; [10]): 16 µg/mL
- MICantibiotic [MICcombo] (E. coli 94393 [2]; [11]): 1 µg/mL
- MICantibiotic [MICcombo] (E. coli 94393 [2]; [12]): 0.125 µg/mL
- MICUTBLP (E. coli ATCC 25922; plate with chloramphenicol): > 128 µg/mL
- MICUTBLP (E. coli ATCC 25922; plate with niclosamide): > 128 µg/mL
- MICUTBLP (E. coli ATCC 25922; plate with novobiocin): > 128 µg/mL
- MICUTBLP (E. coli ATCC 25922; plate with rifampicin): > 128 µg/mL
- MICUTBLP [MICcombo] (E. coli ATCC 25922; [13]): 0.25 µg/mL
- MICUTBLP [MICcombo] (E. coli ATCC 25922; [14]): 4 µg/mL
- MICUTBLP [MICcombo] (E. coli ATCC 25922; [9]): 8 µg/mL
- MICUTBLP [MICcombo] (E. coli ATCC 25922; [10]): 16 µg/mL
- MICantibiotic [MICcombo] (E. coli ATCC 25922; [15]): 2 µg/mL
- MICantibiotic [MICcombo] (E. coli ATCC 25922; [16]): 2 µg/mL
- MICantibiotic [MICcombo] (E. coli ATCC 25922; [11]): 1 µg/mL
- MICantibiotic [MICcombo] (E. coli ATCC 25922; [12]): 0.125 µg/mL
- MIC (MRSA ATCC 33592): >128 mg/L
- MIC (S. aureus ATCC 29213): 128 mg/L (≈ 148 µM)
- MIC (E. faecalis ATCC 29212): >128 mg/L
- MICUTBLP (P. aeruginosa PAO1; plate with chloramphenicol): > 128 µg/mL
- MICUTBLP (P. aeruginosa PAO1; plate with niclosamide): > 128 µg/mL
- MICUTBLP (P. aeruginosa PAO1; plate with novobiocin): > 128 µg/mL
- MICUTBLP (P. aeruginosa PAO1; plate with rifampicin): > 128 µg/mL
- MICUTBLP [MICcombo] (P. aeruginosa PAO1; [13]): 8 µg/mL
- MICUTBLP [MICcombo] (P. aeruginosa PAO1; [14]): 0.25 µg/mL
- MICUTBLP [MICcombo] (P. aeruginosa PAO1; [9]): 16 µg/mL
- MICUTBLP [MICcombo] (P. aeruginosa PAO1; [10]): 8 µg/mL
- MICantibiotic [MICcombo] (P. aeruginosa PAO1; [15]): 8 µg/mL
- MICantibiotic [MICcombo] (P. aeruginosa PAO1; [16]): 1024 µg/mL
- MICantibiotic [MICcombo] (P. aeruginosa PAO1; [11]): 256 µg/mL
- MICantibiotic [MICcombo] (P. aeruginosa PAO1; [12]): 8 µg/mL
- MICUTBLP ([3]; plate with novobiocin): > 128 µg/mL
- MICUTBLP ([3]; plate with rifampicin): > 128 µg/mL
- MICUTBLP [MICcombo] [3, 9]: 16 µg/mL
- MICUTBLP [MICcombo] [3, 10]: 16 µg/mL
- MICantibiotic [MICcombo] [3, 11]: 512 µg/mL
- MICantibiotic [MICcombo] [3, 12]: 4 µg/mL
- MICUTBLP ([4]; plate with novobiocin): > 128 µg/mL
- MICUTBLP ([4]; plate with rifampicin): > 128 µg/mL
- MICUTBLP [MICcombo] [4, 9]: 16 µg/mL
- MICUTBLP [MICcombo] [4, 10]: 0.25 µg/mL
- MICantibiotic [MICcombo] [4, 11]: 512 µg/mL
- MICantibiotic [MICcombo] [4, 12]: 512 µg/mL
- MICUTBLP (E. faecium ATCC 27270; UTBLP alone, plate with chloramphenicol): > 128 µg/mL
- MICUTBLP [MICcombo] (E. faecium ATCC 27270; [13]): 0.25 µg/mL
- MICchloramphenicol [MICcombo] (E. faecium ATCC 27270; [15]): 8 µg/mL
- MIC [5]: > 128 mg/L
- MIC [6]: > 128 mg/L
- MIC (E. coli 94474 [7]): > 128 mg/L
- MIC (E. coli 94393 [8]): > 128 mg/L
SMILES: CCCCCCCC(=O)N[C@@H](CCCCNC)C(=O)NCCCN(CCCNC(=O)[C@H](CCCCNC)NC(=O)CCCCCCC)CC(=O)N[C@@H](CCCCNC)C(N)=O [UTBLP 2]
- Interpretation (E. coli 94474 [1]; UTBLP + novobiocin): Synergy (FICI ≤ 0.5 is synergistic)
- Interpretation (E. coli 94474 [1]; UTBLP + rifampicin): Synergy (FICI ≤ 0.5 is synergistic)
- Interpretation (E. coli 94393 [2]; UTBLP + novobiocin): Synergy (FICI ≤ 0.5 is synergistic)
- Interpretation (E. coli 94393 [2]; UTBLP + rifampicin): Synergy (FICI ≤ 0.5 is synergistic)
- Interpretation (E. coli ATCC 25922; UTBLP + chloramphenicol): Additive (0.5 < x ≤ 4 is additive)
- Interpretation (E. coli ATCC 25922; UTBLP + niclosamide): Synergy (FICI ≤ 0.5 is synergistic)
- Interpretation (E. coli ATCC 25922; UTBLP + novobiocin): Synergy (FICI ≤ 0.5 is synergistic)
- Interpretation (E. coli ATCC 25922; UTBLP + rifampicin): Synergy (FICI ≤ 0.5 is synergistic)
- Interpretation (P. aeruginosa PAO1; UTBLP + chloramphenicol): Synergy (FICI ≤ 0.5 is synergistic)
- Interpretation (P. aeruginosa PAO1; UTBLP + niclosamide): Additive (0.5 < x ≤ 4 is additive)
- Interpretation (P. aeruginosa PAO1; UTBLP + novobiocin): Synergy (FICI ≤ 0.5 is synergistic)
- Interpretation (P. aeruginosa PAO1; UTBLP + rifampicin): Additive (0.5 < x ≤ 4 is additive)
- Interpretation ([3]; UTBLP + novobiocin): Synergy (FICI ≤ 0.5 is synergistic)
- Interpretation ([3]; UTBLP + rifampicin): Synergy (FICI ≤ 0.5 is synergistic)
- Interpretation ([4]; UTBLP + novobiocin): Additive (0.5 < x ≤ 4 is additive)
- Interpretation ([4]; UTBLP + rifampicin): Additive (0.5 < x ≤ 4 is additive)
- Interpretation (E. faecium ATCC 27270; UTBLP + chloramphenicol): Additive (0.5 < x ≤ 4 is additive)
